How the values were obtained:
Assay in all cases: relative viability (nuclei count vs DMSO), 5 days (fraction); higher = more cells survive
Motesanib + Vorinostat = compound: CC1(C)CNc2cc(NC(=O)c3cccnc3NCc3ccncc3)ccc21 [Motesanib] + O=C(CCCCCCC(=O)Nc1ccccc1)NO [Vorinostat] (partner 1 µM)
Summary of the method: (§1)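 Five library-drug doses in √10 steps were combined with a fixed anchor-drug dose, or a single drug was given alone, by pin tool to lung cancer cell lines in 1536-well plates the day after seeding. Nuclei were stained and counted after 5 days. Relative viability is the nuclei count in treated wells over that in vehicle wells, taken as the median of duplicate plates.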

[1] = compound: C[C@@]1(C(=O)Nc2ccc(F)nc2)CCCN1c1nc(Nc2cc(C3CC3)n[nH]2)c2cccn2n1 + CCNC(=O)c1noc(-c2cc(C(C)C)c(O)cc2O)c1-c1ccc(CN2CCOCC2)cc1 [Luminespib] (partner 0.01 µM)
Summary of the method: as §1

[2] = compound: C[C@@]1(C(=O)Nc2ccc(F)nc2)CCCN1c1nc(Nc2cc(C3CC3)n[nH]2)c2cccn2n1 + Cc1cc(Nc2cc(N3CCN(C)CC3)nc(Sc3ccc(NC(=O)C4CC4)cc3)n2)n[nH]1 [Tozasertib] (partner 0.1 µM)
Summary of the method: as §1

[3] = compound: C[C@@]1(C(=O)Nc2ccc(F)nc2)CCCN1c1nc(Nc2cc(C3CC3)n[nH]2)c2cccn2n1 + O=C(c1cc(Cc2n[nH]c(=O)c3ccccc23)ccc1F)N1CCN(C(=O)C2CC2)CC1 [Olaparib] (partner 8 µM)
Summary of the method: as §1

Row | Cell Line | relative viability (Motesanib + Vorinostat; first compound 0.01 µM) | relative viability (Motesanib + Vorinostat; first compound 0.03162 µM) | relative viability (Motesanib + Vorinostat; first compound 0.1 µM) | relative viability (Motesanib + Vorinostat; first compound 0.3162 µM) | relative viability (Motesanib + Vorinostat; first compound 1 µM) | relative viability ([1]; first compound 0.04 µM) | relative viability ([1]; first compound 0.1265 µM) | relative viability ([1]; first compound 0.4 µM) | relative viability ([1]; first compound 1.265 µM) | relative viability ([2]; first compound 0.04 µM) | relative viability ([2]; first compound 0.1265 µM) | relative viability ([2]; first compound 0.4 µM) | relative viability ([2]; first compound 1.265 µM) | relative viability ([3]; first compound 0.04 µM) | relative viability ([3]; first compound 0.1265 µM) | relative viability ([3]; first compound 0.4 µM) | relative viability ([3]; first compound 1.265 µM)
1 | NCI-H2126 | 0.858 | 0.774 | 0.643 | 0.926 | 0.813 | 0.733 | 0.429 | 0.542 | 0.52 | 0.677 | 0.366 | 0.441 | 0.337 | 0.67 | 0.643 | 0.575 | 0.76
2 | LXF-289 | 0.766 | 0.719 | 0.78 | 0.932 | 0.751 | 0.64 | 0.563 | 0.511 | 0.611 | 0.167 | 0.121 | 0.14 | 0.14 | 1.07 | 1.1 | 0.933 | 1.07
3 | NCI-H2009 | 0.671 | 0.636 | 0.823 | 0.729 | 0.71 | 1.11 | 1.08 | 1.01 | 1.07 | 0.779 | 0.693 | 0.598 | 0.519 | 0.718 | 0.657 | 0.726 | 0.663
4 | NCI-H522 | 0.89 | 0.927 | 0.92 | 0.909 | 1.05 | 1.04 | 1.02 | 1.04 | 0.974 | 0.571 | 0.459 | 0.537 | 0.562 | 0.66 | 0.588 | 0.615 | 0.596
5 | NCI-H2405 | 0.941 | 0.989 | 0.96 | 1 | 0.994 | 0.549 | 0.489 | 0.374 | 0.432 | 0.659 | 0.65 | 0.5 | 0.409 | 0.808 | 0.611 | 0.598 | 0.511
6 | NCI-H1755 | 0.672 | 0.759 | 0.808 | 0.945 | 0.747 | 0.616 | 0.357 | 0.406 | 0.437 | 0.558 | 0.528 | 0.472 | 0.545 | 0.93 | 0.73 | 0.759 | 0.851
7 | LOU-NH91 | 0.918 | 0.932 | 0.993 | 1 | 0.992 | 0.335 | 0.353 | 0.305 | 0.335 | 0.641 | 0.635 | 0.56 | 0.447 | 0.932 | 0.945 | 0.828 | 0.908

From the supplement of paper PMC10307832
